Laboratory results from the RepoRT retention time repository.

Test: RP, Waters ACQUITY UPLC BEH C18, 50 × 2.1 mm, 1.7 µm, 40 °C, 0.6 mL/min, estimated dead time 0.18 min; A: water + 0.1% formic acid, pH 3; B: acetonitrile + 0.1% formic acid, pH 3; gradient (min/%B) 0/5 7/100 8/100
Details: stereoisomer not certain

Row | SMILES | LC retention time
1 | COc1ccc(OC)c([N+](=O)[O-])c1/C=C/[N+](=O)[O-] [1,4-dimethoxy-2-nitro-3-[(1E)-2-nitroethenyl]benzene] | 0.72 min
2 | COc1cccc2nc3occc3c(OC)c12 [4,5-dimethoxyfuro[2,3-b]quinoline] | 2.62 min
3 | CCN1CC2(COC(=O)c3ccccc3N3C(=O)CC(C)C3=O)CCC(OC)C34C5CC6C(OC)CC(O)(C5C6OC)C(O)(C(OC)C23)C14 (configuration not stated) | 2.22 min
4 | CC1=CC(C2OC3CCCN4C(C5CC(C)C(=O)O5)CCC4C3C2C)OC1=O (configuration not stated) | 1.27 min
5 | CC[C@]12C=CCN3CC[C@]4(C(=C(C(=O)OC)C1)Nc1ccccc14)C32 (some centres not stated) | 2.17 min
6 | COc1cc2ccc(=O)oc2cc1OC [6,7-dimethoxy-2H-chromen-2-one] | 1.87 min
7 | CC(=O)OC(C)(C)/C=C/C(=O)[C@](C)(O)[C@H]1[C@H](O)C[C@@]2(C)[C@@H]3CC=C4C(C=C(O)C(=O)C4(C)C)[C@]3(C)C(=O)C[C@]12C (some centres not stated) | 3.63 min
8 | COc1cc2c(cc1OC)-c1c(OC)c(OC)cc3c1C(C2)N(C)CC3 (configuration not stated) | 1.87 min
9 | O=C1c2ccc(O)cc2OC(c2ccc(O)cc2)C1C1C(=O)c2ccc(O)cc2OC1c1ccc(O)cc1 (configuration not stated) | 2.67 min
10 | COc1ccc(-c2oc3cc(O)c(OC)c(O)c3c(=O)c2OC)cc1 | 3.08 min
11 | COc1ccc2c(c1)CC1c3c(cc4c(c3-2)OCO4)CCN1C (configuration not stated) | 2.15 min
12 | C[C@@H]1CC2(NCCS2)C(=O)C(O[C@@H]2CC3CCC4C(CC[C@]5(C)[C@@H](C6=CC(=O)OC6)CC[C@]45O)[C@@]3(C=O)C[C@H]2O)O1 (some centres not stated) | 1.89 min
13 | C=C1CC23CCC4C(C)(C(=O)O)CCCC4(C)C2CCC1C3 (configuration not stated) | 5.69 min
14 | C/C=C1/CN(C)[C@@H]2Cc3c([nH]c4ccccc34)C(=O)C[C@H]1C2C(=O)OC (some centres not stated) | 1.4 min
15 | CC1CC2CC3CCCC(=O)N3C3CCC(O)C(C1)N23 (configuration not stated) | 0.92 min
16 | O=C1c2c(O)cc(O)c(C3C(=O)c4c(O)cc(O)cc4OC3c3ccc(O)cc3)c2OC(c2ccc(O)cc2)C1O (configuration not stated) | 1.54 min
17 | COc1cc2c3c(c1O)Oc1ccc(cc1)CC1c4c(cc(OC)c(O)c4Oc4ccc(cc4)CC3N(C)CC2)CCN1C (configuration not stated) | 1.44 min
18 | C=C(CO)C(=O)OC1CC(=C)C2CC(O)C(=C)C2C2OC(=O)C(=C)C12 (configuration not stated) | 2.16 min
19 | C=C1C(=O)O[C@@H]2C[C@@]3(C)CCC[C@H](C)C3=C[C@H]12 | 4.26 min
20 | COc1cc2c(cc1OC)-c1c3c(cc4c1C(C2)N(C)CC4)OCO3 (configuration not stated) | 1.84 min
21 | CC(C)=CCc1c2c(c(O)c3c1OC14C(=CC5CC1C(C)(C)OC4(CC=C(C)C(=O)O)C5=O)C3=O)C=CC(C)(C)O2 (configuration not stated) | 5.38 min
22 | COc1c(O)cc2c3c1C1(C=CC(=O)C=C1)CC3N(C)CC2 (configuration not stated) | 0.738 min
23 | COc1c(O)ccc2c1C(OC)N(C)c1c-2ccc2cc3c(cc12)OCO3 (configuration not stated) | 2.48 min
24 | COc1ccc(-c2cc(=O)c3c(O)cc(O)cc3o2)cc1-c1c(O)cc(O)c2c(=O)cc(-c3ccc(O)cc3)oc12 | 3.1 min
25 | Cn1c(N)nc2c(ncn2C)c1=O [2-amino-1,9-dimethyl-6,9-dihydro-1H-purin-6-one] | 0.226 min
26 | COc1cc2c(cc1O)CC1NCCc3cc(OC)c(OC)c-2c31 (configuration not stated) | 1.58 min
27 | Cn1c(Cc2ccccc2)nc(=O)c2ccccc21 [2-benzyl-1-methyl-1,4-dihydroquinazolin-4-one] | 1.8 min

More lines, now with the values ahead:

Row | LC retention time | SMILES
28 | 3.06 min | CC(=O)OC(C)(C)CCC(=O)[C@](C)(O)C1[C@H](O)C[C@@]2(C)C3CC=C4C(C[C@H](O)[C@@H](O)C4(C)C)[C@]3(C)C(=O)C[C@]12C (some centres not stated)
29 | 2.1 min | COc1cc(O)ccc1CCC(c1ccc(O)cc1)c1cc(CCC(=O)c2ccc(O)cc2)c(O)cc1O (configuration not stated)
30 | 5.49 min | CCC(O)c1cc(=O)oc2c(C(=O)CC(C)C)c(O)c(CC=C(C)C)c(O)c12 (configuration not stated)
31 | 3.14 min | COc1ccc(C(=O)[C@@H](c2coc3cc(O)ccc3c2=O)C(c2ccc(O)cc2)c2ccc(O)cc2)c(O)c1
32 | 2.74 min | CC(=O)OC(C)(C)/C=C/C(=O)[C@](C)(O)[C@H]1[C@H](O)C[C@@]2(C)C3CC=C4C(C[C@H](OC5OC(CO)C(O)C(O)C5O)C(=O)C4(C)C)[C@]3(C)C(=O)C[C@]12C (some centres not stated)
33 | 3.14 min | CC(=O)OC(C)(C)C=CC(=O)C(C)(O)C1C(O)CC2(C)C3CC=C4C(=COC(=O)C4(C)C)C3(C)C(=O)CC12C (configuration not stated)
34 | 1.41 min | CC(CC[C@@H](C)[C@H]1CCC2C3C[C@H](OS(=O)(=O)O)[C@H]4C[C@H](OS(=O)(=O)O)C(OS(=O)(=O)O)C[C@]4(C)C3CC[C@@]21C)C(C)(C)C (some centres not stated)
35 | 4.77 min | COc1c(CC=C(C)C)c(O)c(CC=C(C)C)c(O)c1C(=O)c1ccc(O)cc1
36 | 4.71 min | C=C1COC(=O)C12C[C@@]1(C)C([C@@H](OC(=O)/C=C/SC)CC[C@@H]1C)[C@H]2OC(=O)/C(C)=C\C (some centres not stated)
37 | 5.65 min | C=C(C)C1CCC2(C(=O)O)CCC3(C)C(CCC4C5(C)CCC(OC(=O)/C=C/c6ccc(O)c(O)c6)C(C)(C)C5CCC43C)C12 (configuration not stated)
38 | 4.79 min | C/C(=C\CC/C=C(\C)CC/C=C(\C)CCC(O)C(C)(O)CO)CC/C=C(\C)CCC(O)C(C)(C)O (configuration not stated)
39 | 5.22 min | C/C(=C\C1CC(C2CCC34CC23C=CC2C3(C)CC=C5CC(c6ccccc6)OCC5(C)C3CC(O)C24C)C(=O)O1)CO (configuration not stated)
40 | 1.29 min | COC(=O)C1=COC(OC2OC(CO)C(O)C(O)C2O)C2C(O)CN3CCc4c([nH]c5ccccc45)[C@@H]3CC12 (some centres not stated)
41 | 3.02 min | C=C1CCC(C(C)C)=CC2C1CCC2(C)O (configuration not stated)
42 | 4.97 min | COc1cc(/C=C/C(=O)OC2CC3(C)CCC2C3(C)C)ccc1O (configuration not stated)
43 | 6.83 min | COC(=O)CC(C1=C2OC(=O)C(C(=O)CC(C)C)=C(O)C2(CC=C(C)C)CC(CC=C(C)C)C1(C)C)c1ccccc1 (configuration not stated)
44 | 2.84 min | CC(=O)OC/C=C(\C)C(=O)OC1C(=O)C(CO)=CC(OC(C)=O)C1C(C)C (configuration not stated)
45 | 2.66 min | COc1cc(-c2oc3cc(OC)c(OC)c(O)c3c(=O)c2OC)ccc1O
46 | 6.32 min | CCCCCCCCCCCCO[C@@H]1O[C@@H](C)[C@H](OC(C)=O)[C@@H](O[C@@H]2O[C@@H](C)[C@H](OC(C)=O)[C@@H](O[C@@H]3O[C@@H](C)[C@H](OC(C)=O)[C@@H](O)[C@H]3O)[C@H]2OC(C)=O)[C@H]1O
47 | 5.54 min | CC1(C)CCC2(C(=O)O)CC=C3C(C)(CCC4C3(C)CCC3C(C)(C)C(OC(=O)c5ccc(O)cc5)C(OC(=O)c5ccc(O)cc5)CC43C)C2C1 (configuration not stated)

Row | LC retention time | SMILES
48 | 4.07 min | C=C1COC(=O)C12C[C@@]1(C)C([C@@H](OC(=O)/C=C/SC)CC[C@@H]1C)[C@H]2OC(C)=O (some centres not stated)
49 | 2.86 min | CC(C)C1CCC2(C)C3CCC45CCCC4C2(CCC(=O)C2(C)COC4(C)CCC2O4)C1N5C3 (configuration not stated)
50 | 0.287 min | COc1c(O)cc(-c2oc3cc(O)cc(O)c3c(=O)c2O[C@@H]2O[C@@H](C)[C@H](O)[C@@H](O)[C@H]2O)cc1O
51 | 3.33 min | COC(=O)C1=CC(O)C23OC1CC2(C)CC[C@H](C(C)C)O3 (some centres not stated)
52 | 2.21 min | C[C@@H]1O[C@@H](O[C@@H]2C(O[C@H]3CC[C@@]4(C)C(CC[C@]5(C)C4CC=C4C6CC(C)(C)CC[C@]6(C(=O)O)CC[C@]45C)[C@]3(C)CO)OC[C@@H](OC3O[C@H](CO)[C@@H](O)[C@H](O)[C@H]3O)[C@H]2O)[C@H](O)[C@H](O[C@@H]2OC[C@@H](O)[C@H](O)[C@H]2O)[C@H]1O (some centres not stated)
53 | 3.15 min | O=C(/C=C/c1ccc(O)cc1)OC[C@H]1O[C@@H](Oc2cc(O)c3c(=O)cc(-c4ccc(O)cc4)oc3c2)[C@H](OC(=O)/C=C/c2ccc(O)cc2)[C@@H](O)[C@@H]1O
54 | 3.04 min | C=C1CCC2(OC1)OC1CC3C4C(O)C(=O)C5(O)C(O)C(O)C(O)C(O)C5(C)C4CCC3(C)C1C2C (configuration not stated)
55 | 4.68 min | CCCCCCCCC/C=C\CCCC[C@@H]1CCC[C@@H](C)N1 [(2R,6R)-2-methyl-6-[(5Z)-pentadec-5-en-1-yl]piperidine]
56 | 6.55 min | CCCC(CC(=O)O)C1=C2OC(=O)C(C(=O)C(C)CC)=C(O)C2(CC=C(C)C)CC(CC=C(C)C)C1(C)C (configuration not stated)
57 | 4.84 min | CCCCCCCCCCC/C=C\CC[C@@H]1CCC[C@@H](C)N1 [(2R,6S)-2-methyl-6-[(3Z)-pentadec-3-en-1-yl]piperidine]
58 | 0.266 min | C[C@@H]1O[C@@H](Oc2c(-c3ccc(O)c(O)c3)oc3cc(O)cc(O)c3c2=O)[C@H](O)[C@H](O)[C@H]1O
59 | 0.975 min | COc1cc(CC[N+](C)(C)C)c2ccc3cc4c(c5c3c2c1OC5)OCO4
60 | 3.41 min | CC1CCC2(C)C(CCC3OC32C)C1(C)CC(=O)c1ccoc1 (configuration not stated)
61 | 1.09 min | COC1=CC(=O)C2(c3cc(=O)c4c(O)cc(O)cc4o3)C(CC=C(C)C2C[C@@]2(O)C(C)(O)CC[C@H]3C(C)(C)C[C@H](O)C[C@@]32C)C1=O (some centres not stated)
62 | 4.1 min | C=C(C(=O)C(O)C(C)C1C(OC(C)=O)CC2(C)C3CCC4C(C)C(=O)C=CC45CC35CCC12C)C(C)CO (configuration not stated)
63 | 0.702 min | C=C1[C@@H](O)C[C@H]2C(C)(C)C[C@H](O)C[C@]2(C)[C@H]1CC1C(C)=CCC2C(=O)C(OC)=CC(=O)C21c1cc(=O)c2c(O)cc(O)cc2o1 (some centres not stated)
64 | 2.78 min | C=CCc1ccc(O)c(-c2cc(CC=C)ccc2O)c1 [5,5'-bis(prop-2-en-1-yl)-[1,1'-biphenyl]-2,2'-diol]
65 | 2.12 min | C=C1[C@@H](O)C[C@H]2C(C)(C)CCC[C@]2(C)[C@H]1CC1C(C)=CCC2C(=O)C(OC)=CC(=O)C21c1cc(=O)c2c(O)cc(O)cc2o1 (some centres not stated)
66 | 4.97 min | CC(=O)OC(CCc1ccccc1)Cc1cc(=O)c2c(o1)OC1(C)CCC(C(C)C)C2C1 (configuration not stated)
67 | 1.59 min | COc1cc2c(cc1O)C(Cc1ccc(OC3=CC4(C=CC3=O)CC3c5c(cc(OC)c(OC)c54)CCN3C)cc1)N(C)CC2 (configuration not stated)
